How the values were obtained:
Assay in all cases: relative viability (nuclei count vs DMSO), 5 days (fraction); higher = more cells survive
AZD1208 + Foretinib = compound: N[C@@H]1CCCN(c2c(/C=C3\SC(=O)NC3=O)cccc2-c2ccccc2)C1 [AZD1208] + COc1cc2c(Oc3ccc(NC(=O)C4(C(=O)Nc5ccc(F)cc5)CC4)cc3F)ccnc2cc1OCCCN1CCOCC1 [Foretinib] (partner 0.25 µM)
Procedure, shortened: (§1)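 For relative viability, nuclei counts in treated wells were divided by those in vehicle wells. Lung cancer cell lines had been pin-tool dosed in 1536-well plates the day after seeding and cultured for 5 days, then fixed and stained in one step (final 0.05% Triton X-100, 1% formaldehyde, 1 ug/ml Hoechst) and imaged at 4×. Doses were one drug alone or a fixed anchor-drug dose plus five library-drug doses (not always all listed) in √10 steps, and values are duplicate-plate medians.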

AZD1208 + Crizotinib = compound: N[C@@H]1CCCN(c2c(/C=C3\SC(=O)NC3=O)cccc2-c2ccccc2)C1 [AZD1208] + C[C@@H](Oc1cc(-c2cnn(C3CCNCC3)c2)cnc1N)c1c(Cl)ccc(F)c1Cl [Crizotinib] (partner 1 µM)
Procedure, shortened: as §1

XMD14-99 + Alpelisib = compound: CN1CCN(CC1)C2=CC(=C(C=C2)NC3=NC(=C(S3)C(=O)C4=C(C=CC=C4Cl)Cl)N)OC [XMD14-99] + Cc1nc(NC(=O)N2CCC[C@H]2C(N)=O)sc1-c1ccnc(C(C)(C)C(F)(F)F)c1 [Alpelisib] (partner 2 µM)
Procedure, shortened: as §1

XMD14-99 + Dasatinib = compound: CN1CCN(CC1)C2=CC(=C(C=C2)NC3=NC(=C(S3)C(=O)C4=C(C=CC=C4Cl)Cl)N)OC [XMD14-99] + Cc1nc(Nc2ncc(C(=O)Nc3c(C)cccc3Cl)s2)cc(N2CCN(CCO)CC2)n1 [Dasatinib] (partner 0.075 µM)
Procedure, shortened: as §1

Cell Line	relative viability (AZD1208 + Foretinib; first compound 0.08 µM)	relative viability (AZD1208 + Foretinib; first compound 0.253 µM)	relative viability (AZD1208 + Foretinib; first compound 0.8 µM)	relative viability (AZD1208 + Foretinib; first compound 2.53 µM)	relative viability (AZD1208 + Foretinib; first compound 8 µM)	relative viability (AZD1208 + Crizotinib; first compound 0.08 µM)	relative viability (AZD1208 + Crizotinib; first compound 0.253 µM)	relative viability (AZD1208 + Crizotinib; first compound 0.8 µM)	relative viability (AZD1208 + Crizotinib; first compound 2.53 µM)	relative viability (AZD1208 + Crizotinib; first compound 8 µM)	relative viability (XMD14-99 + Alpelisib; first compound 0.08 µM)	relative viability (XMD14-99 + Alpelisib; first compound 0.8 µM)	relative viability (XMD14-99 + Alpelisib; first compound 2.53 µM)	relative viability (XMD14-99 + Alpelisib; first compound 8 µM)	relative viability (XMD14-99 + Dasatinib; first compound 0.08 µM)	relative viability (XMD14-99 + Dasatinib; first compound 0.8 µM)	relative viability (XMD14-99 + Dasatinib; first compound 2.53 µM)	relative viability (XMD14-99 + Dasatinib; first compound 8 µM)
SK-LU-1	0.794	0.917	0.8	0.721	0.661	0.991	1.16	0.882	0.819	0.674	0.893	0.96	0.996	0.598	0.182	0.204	0.181	0.163
SK-MES-1	0.84	0.949	0.817	0.769	0.661	1.07	0.944	0.909	0.974	0.78	0.924	0.909	0.851	0.591	0.381	0.398	0.336	0.225
SW 1573	0.709	0.872	0.837	0.573	0.653	0.686	0.674	0.686	0.607	0.591	0.8	0.737	0.697	0.651	0.401	0.42	0.52	0.325
